In patent US20130072506A1, “6,8-DISUBSTITUTED PURINE COMPOSITIONS” (priority 2011, published 2013):

Tests used:
proteasome = assay: Proteasomal activity (chymotrypsin-like) in cell extracts; assay type: cell-based, human; conditions: 40 μM-200 μM
Protocol: (§1) All cell culture experiments were performed on early and mid passage cultures (about 20 to 40% lifespan completed) of normal human skin fibroblast line, designated ASF-2. In order to check the effects of test compounds on senescent cells, late passage cells with more than 90% lifespan completed were used. ASF-2 cell line was established from a mammary skin biopsy obtained from a young, non-smoking and healthy […] at the time of breast reduction operation. Normal culture conditions of medium (DMEM) containing antibiotics, 10% foetal calf serum, and incubation at 37° C. with 95% humidity were used. The effects of the test compounds were determined using the following procedures.
Proteasomal activity. Chymotrypsin-like activity in cell extracts prepared from treated and untreated cells was determined by in vitro degradation of oligopeptides by the proteasome.

[1] = tested on: cytokinin-dependent tobacco callus; assay: Growth of cytokinin-dependent tobacco callus (plant cell division); assay type: cell-based, Nicotiana tabacum L. cv. Wisconsin 38; conditions: at concentration with highest activity; activity of kinetin set at 100%
Protocol: The effect on plant cell division. Cytokinin-dependent tobacco callus Nicotiana tabacum L. cv. Wisconsin 38 was maintained at 25° C. in darkness on modified MS medium, containing 4 μmol/l nicotinic acid, 2.4 μmol/l pyridoxine hydrochloride, 1.2 μmol/l thiamine, 26.6 μmol/l glycine, 1.37 μmol/l glutamine, 1.8 μmol/1 myo-inositol, 30 g/l of sucrose, 8 g/l of agar, 5.37 μmol/l NAA and 0.5 μmol/l BAP. Subcultivation was carried out every three weeks. Fourteen days before the bioassay, the callus tissue was transferred to the media without BAP. Biological activity was determined from the increase in fresh callus weight after four weeks of cultivation. Five replicates were prepared for each cytokinin concentration and the entire test was repeated twice. From the obtained data, the concentration with highest activity was selected for each compound tested. Relative activity at this concentration was calculated (see Table 4 below).
The cytokinins to be tested were dissolved in dimethylsulfoxide (DMSO) and the solution brought up to 10^−3M with distilled water.

[2] = tested on: human skin fibroblast line ASF-2; assay: Cell attachment of human skin fibroblasts; assay type: cell-based; conditions: six hours of treatment, 40 to 500 μM
Protocol: A) Growth characteristics: • (1) Cell attachment frequency: to rule out immediate toxicity; • (2) Cell survival: to rule out delayed toxicity; • (3) Growth rates: to determine cell division stimulatory/inhibitory potential;
Experimental Procedures. A stock solution of 4 mM for 6-furfurylamino-8-aminopurine and 8 mM for other compounds were prepared by dissolving about […] per ml 1N HCl, followed by its appropriate dilution by the addition of Hank's buffer. The stock solution was filter sterilized, stored at 4° C., and was used for experiments by dilution it in the cell culture medium as required.
as §1

[3] = tested on: human skin fibroblast line ASF-2; assay: Senescence-specific beta-galactosidase staining; assay type: cell-based
Source text: B) Cellular parameters: • (4) Cellular morphology: to evaluate cytoplasmic and nuclear stability; • (5) Cytoskeleton organization: to evaluate the stability of the cytoskeleton; • (6) Appearance of senescence-specific β-galactosidase: to rule out pro-aging effects; • (7) Lysosomal staining (Neutral red); • (8) JC-1 Staining of Mitochondria: for evaluation of mitochondrial function; • (9) Rejuvenation studies: for evaluation of reversion effect from aged phenotype to young phenotype; and
as §1

SKH-1 hairless mice = assay: Hairless mouse assay: skin elasticity; assay type: in vivo; conditions: 3 weeks of topical treatment
Source text: Evaluation of cutaneous effects of new topical compounds in the hirless mouse assay. The purpose of this study was to evaluate new topical compounds for their safety and efficacy as topical skin anti-aging treatments. The hairless mouse model is a well established model for studying the treatments of photoaging. This model has been used to study mechanisms, define effective treatment regimens and assess safety for retinoids and other anti-aging products. The present study was used to investigate a new class of anti-aging compounds in comparison to classical ones. Recent clinical studies have shown that this class of compounds improve the appearance of photodamaged skin and decrease transepidermal water loss (TEWL) without causing skin irritation. […] At baseline (prior to the 1st treatment), and weekly, the dorsal skin was measured for: transepidermal water loss (TEWL); skin moisture content; and skin elasticity. […]
Skin Moisture Content & Elasticity. […] This instrument is equipped with dual probes which are placed on the skin surface and a quantitative measurement taken of the respective parameters and the measurements recorded on an integrated computer. Mean measurements was determined for each treatment group over time, and comparative statistics used to evaluate product effectiveness. […]

[4] = tested on: lysosomes of human skin fibroblasts; assay: Lysosomal staining (Neutral Red); assay type: cell-based; conditions: treated cells compared to the controls
Protocol: as §1
Lysosomal activity. Neutral Red is preferentially taken up into the lysosomes of the cell. Fibroblast cells are maintained in culture and exposed to test compounds over a range of concentrations. The cultures are visually examined after 72 hours, and the number of viable cells and/or the total cell protein content determined, after 72 hours exposure, by the Neutral Red Uptake method. Advantage of Neutral Red assay is that it detects only viable cells. Any material having a localized effect upon the lysosomes will, therefore, result in an artificially low (or possibly high) reflection of cell viability and cell number. […]

[5] = tested on: mitochondria of ASF-2 cells; assay: JC-1 staining of mitochondria; assay type: cell-based, human; conditions: 3 days pre-treatment of dermal fibroblasts
Protocol: as §1
Briefly, stock solution of JC-1 (Sigma, M2128) was made at 1 mg/ml in dimethyl sulfoxide. Fresh staining solution […] was prepared by diluting the stock solution in warm (37° C.) culture medium supplemented with 10% calf serum (final conc. 1 μg/ml). Around 3000 cells/ml were seeded in 4 chambered flasks. After three days of incubation, medium is aspirated and one ml of JC-1 staining medium is added, after incubation for 10 mins a cover slip is quickly added and viewed under fluorescent microscope at excitation wavelengths of 488 and 647 nm. […] On depolarization, the orange red punctate staining is replaced by diffuse green monomer fluorescence.

Nc1nc2c(NCc3ccco3)ncnc2[nH]1 [Compound 82, 6-furfurylamino-8-aminopurine]
improvement in the proteasomal activity (proteasome): 5-10%
inhibition of chymotrypsin-like proteasomal activity (proteasome; compared to untreated): no inhibition
Activity (%) [1]: 150.10%
Percent of cells attached [2]: not affected to any significant extent
number of prematurely senescent cells (beta-galactosidase staining) [3]: did not show any increase
skin elasticity (SKH-1 hairless mice): better than controls tested
lysosomes (Neutral Red staining) [4]: larger and more numerous
JC-1 staining [5]: punctate orange-red fluorescent staining
